The source made the active and inactive calls. The rule behind the calls is not given here.
Assays:
U-87 MG [1] = experiment: Cytotoxicity against human U-87MG cells assessed as reduction in total cell count measured after 96 hrs in presence of TMZ by Hoechst staining analysis; format: functional, cell-based, U-87MG ATCC
U-87 MG [2] = experiment: Cytotoxicity against human U-87MG cells assessed as reduction in total cell count measured after 96 hrs by Hoechst staining analysis; format: functional, cell-based, U-87MG ATCC
GBM [3] = experiment: Synergistic cytotoxicity against patient derived human GBM cells assessed as combination index at 1 nM measured after 96 hrs in presence of TMZ by Hoechst staining based analysis; format: functional
GBM [4] = experiment: Synergistic cytotoxicity against patient derived human GBM cells assessed as combination index at 25 nM measured after 96 hrs in presence of TMZ by Hoechst staining based analysis; format: functional
U-87 MG [5] = experiment: Synergistic cytotoxicity against human U-87MG cells assessed as combination index at 800 nM measured after 96 hrs by Hoechst staining based analysis; format: functional, U-87MG ATCC
U-87 MG [6] = experiment: Synergistic cytotoxicity against human U-87MG cells assessed as combination index at 100000 nM measured after 96 hrs by Hoechst staining based analysis; format: functional, U-87MG ATCC
GBM [7] = experiment: Synergistic cytotoxicity against patient derived human GBM cells assessed as combination index at 0.04 nM measured after 96 hrs in presence of TMZ by Hoechst staining based analysis; format: functional
U-87 MG [8] = experiment: Synergistic cytotoxicity against human U-87MG cells assessed as combination index at 4000 nM measured after 96 hrs by Hoechst staining based analysis; format: functional, U-87MG ATCC
KNS-42 [9] = experiment: Synergistic cytotoxicity against human KNS-42 cells assessed as combination index at 5 nM measured after 96 hrs by Hoechst staining based analysis; format: functional
KNS-42 [10] = experiment: Antagonistic cytotoxicity against human KNS-42 cells assessed as combination index at 25 nM measured after 96 hrs in presence of TMZ by Hoechst staining based analysis; format: functional
U-87 MG [11] = experiment: Antagonistic cytotoxicity against human U-87MG cells assessed as combination index at 25 nM measured after 96 hrs in presence of TMZ by Hoechst staining based analysis; format: functional, U-87MG ATCC
GBM [12] = experiment: Synergistic cytotoxicity against patient derived human GBM cells assessed as combination index at 125 nM measured after 96 hrs in presence of TMZ by Hoechst staining based analysis; format: functional
GBM [13] = experiment: Antiproliferative activity against patient derived human GBM cells assessed as reduction in cell proliferation measured after 48 hrs by EdU-incorporation assay; format: functional, cell-based
KNS-42 [14] = experiment: Cytotoxicity against human KNS-42 cells assessed as reduction in total cell count measured after 96 hrs by Hoechst staining analysis; format: functional, cell-based; settings: KNS-42, 96 h
U-87 MG [15] = experiment: Synergistic cytotoxicity against human U-87MG cells assessed as combination index at 0.2 nM measured after 96 hrs by Hoechst staining based analysis; format: functional, U-87MG ATCC
U-87 MG [16] = experiment: Antagonistic cytotoxicity against human U-87MG cells assessed as combination index at 0.04 nM measured after 96 hrs in presence of TMZ by Hoechst staining based analysis; format: functional, U-87MG ATCC
U-87 MG [17] = experiment: Antagonistic cytotoxicity against human U-87MG cells assessed as combination index at 1 nM measured after 96 hrs in presence of TMZ by Hoechst staining based analysis; format: functional, U-87MG ATCC
GBM [18] = experiment: Induction of apoptosis in patient derived human GBM cells assessed as increase in cleaved caspase-3 positive cells at IC50; format: functional, cell-based
U-87 MG [19] = experiment: Antiproliferative activity against human U-87MG cells assessed as reduction in cell proliferation measured after 48 hrs by EdU-incorporation assay; format: functional, cell-based, U-87MG ATCC
U-87 MG [20] = experiment: Synergistic cytotoxicity against human U-87MG cells assessed as combination index at 20000 nM measured after 96 hrs by Hoechst staining based analysis; format: functional, U-87MG ATCC
[21] = Selectivity ratio of EC50 for cytotoxicity against primary brain pericytes (unknown origin) to EC50 for cytotoxicity against patient derived human GBM cells
KNS-42 [22] = experiment: Antagonistic cytotoxicity against human KNS-42 cells assessed as combination index at 0.04 nM measured after 96 hrs in presence of TMZ by Hoechst staining based analysis; format: functional
KNS-42 [23] = experiment: Synergistic cytotoxicity against human KNS-42 cells assessed as combination index at 100000 nM measured after 96 hrs by Hoechst staining based analysis; format: functional
KNS-42 [24] = experiment: Synergistic cytotoxicity against human KNS-42 cells assessed as combination index at 0.2 nM measured after 96 hrs by Hoechst staining based analysis; format: functional
GBM [25] = experiment: Synergistic cytotoxicity against patient derived human GBM cells assessed as combination index at 4000 nM measured after 96 hrs in presence of TMZ by Hoechst staining based analysis; format: functional
U-87 MG [26] = experiment: Synergistic cytotoxicity against human U-87MG cells assessed as combination index at 5 nM measured after 96 hrs by Hoechst staining based analysis; format: functional, U-87MG ATCC
KNS-42 [27] = experiment: Synergistic cytotoxicity against human KNS-42 cells assessed as combination index at 20000 nM measured after 96 hrs by Hoechst staining based analysis; format: functional
KNS-42 [28] = experiment: Antagonistic cytotoxicity against human KNS-42 cells assessed as combination index at 1 nM measured after 96 hrs in presence of TMZ by Hoechst staining based analysis; format: functional
GBM [29] = experiment: Synergistic cytotoxicity against patient derived human GBM cells assessed as combination index at 0.2 nM measured after 96 hrs in presence of TMZ by Hoechst staining based analysis; format: functional
KNS-42 [30] = experiment: Synergistic cytotoxicity against human KNS-42 cells assessed as combination index at 125 nM measured after 96 hrs by Hoechst staining based analysis; format: functional
GBM [31] = experiment: Cytotoxicity against patient derived human GBM cells assessed as reduction in total cell count measured after 96 hrs by Hoechst staining analysis; format: functional, cell-based
U-87 MG [32] = experiment: Synergistic cytotoxicity against human U-87MG cells assessed as combination index at 125 nM measured after 96 hrs by Hoechst staining based analysis; format: functional, U-87MG ATCC
KNS-42 [33] = experiment: Antiproliferative activity against human KNS-42 cells assessed as reduction in cell proliferation measured after 48 hrs in presence of TMZ by EdU-incorporation assay; format: functional, cell-based; settings: KNS-42, 48 h
KNS-42 [34] = experiment: Synergistic cytotoxicity against human KNS-42 cells assessed as combination index at 800 nM measured after 96 hrs by Hoechst staining based analysis; format: functional
GBM [35] = experiment: Synergistic cytotoxicity against patient derived human GBM cells assessed as combination index at 800 nM measured after 96 hrs in presence of TMZ by Hoechst staining based analysis; format: functional
GBM [36] = experiment: Synergistic cytotoxicity against patient derived human GBM cells assessed as combination index at 5 nM measured after 96 hrs in presence of TMZ by Hoechst staining based analysis; format: functional
KNS-42 [37] = experiment: Antiproliferative activity against human KNS-42 cells assessed as reduction in cell proliferation measured after 48 hrs by EdU-incorporation assay; format: functional, cell-based; settings: KNS-42, 48 h
[38] = Cytotoxicity against primary brain pericytes (unknown origin); format: cell-based
GBM [39] = experiment: Antiproliferative activity against patient derived human GBM cells assessed as reduction in cell proliferation measured after 48 hrs in presence of TMZ by EdU-incorporation assay; format: functional, cell-based
GBM [40] = experiment: Synergistic cytotoxicity against patient derived human GBM cells assessed as combination index at 20000 nM measured after 96 hrs in presence of TMZ by Hoechst staining based analysis; format: functional
GBM [41] = experiment: Synergistic cytotoxicity against patient derived human GBM cells assessed as combination index at 100000 nM measured after 96 hrs in presence of TMZ by Hoechst staining based analysis; format: functional
U-87 MG [42] = experiment: Antiproliferative activity against human U-87MG cells assessed as reduction in cell proliferation measured after 48 hrs in presence of TMZ by EdU-incorporation assay; format: functional, cell-based, U-87MG ATCC
KNS-42 [43] = experiment: Cytotoxicity against human KNS-42 cells assessed as reduction in total cell count measured after 96 hrs in presence of TMZ by Hoechst staining based analysis; format: functional; settings: KNS-42, 96 h
GBM [44] = experiment: Cytotoxicity against patient derived human GBM cells assessed as reduction in total cell count measured after 96 hrs in presence of TMZ by Hoechst staining analysis; format: functional, cell-based
KNS-42 [45] = experiment: Synergistic cytotoxicity against human KNS-42 cells assessed as combination index at 4000 nM measured after 96 hrs by Hoechst staining based analysis; format: functional

SMILES: COc1cc(C(=O)NC2CCCN(C(=O)CCCCCN3/C(=C/C=C4\CCCC(/C=C/C5=[N+](CCCCCC(=O)N6CCCC(NC(=O)c7cc(OC)c(OC)c(OC)c7)C6)c6ccccc6C5(C)C)=C4Cl)C(C)(C)c4ccccc43)C2)cc(OC)c1OC.[Br-] (stereo not given)
- EC50 (U-87 MG [1]): 0.108 µM
- EC50 (U-87 MG [2]): 0.394 µM
- CI (GBM [3]): 0.301
- CI (GBM [4]): 0.506
- CI (U-87 MG [5]): 0.067
- CI (U-87 MG [6]): 0.05
- CI (GBM [7]): 0.323
- CI (U-87 MG [8]): 0.116
- CI (KNS-42 [9]): 0.134
- CI (KNS-42 [10]): 3.837
- CI (U-87 MG [11]): 3.837
- CI (GBM [12]): 0.571
- IC50 (GBM [13]): 0.164 µM
- EC50 (KNS-42 [14]): 0.394 µM
- CI (U-87 MG [15]): 0.016
- CI (U-87 MG [16]): 5.672
- CI (U-87 MG [17]): 3.406
- Activity (GBM [18]): Active
- IC50 (U-87 MG [19]): 0.504 µM
- CI (U-87 MG [20]): 0.052
- Ratio EC50 [21]: 19
- CI (KNS-42 [22]): 5.672
- CI (KNS-42 [23]): 0.05
- CI (KNS-42 [24]): 0.016
- CI (GBM [25]): 0.536
- CI (U-87 MG [26]): 0.134
- CI (KNS-42 [27]): 0.052
- CI (KNS-42 [28]): 3.406
- CI (GBM [29]): 0.025
- CI (KNS-42 [30]): 0.268
- EC50 (GBM [31]): 0.211 µM
- CI (U-87 MG [32]): 0.268
- IC50 (KNS-42 [33]): 0.194 µM
- CI (KNS-42 [34]): 0.067
- CI (GBM [35]): 0.287
- CI (GBM [36]): 0.551
- IC50 (KNS-42 [37]): 0.504 µM
- EC50 [38]: 3.6 µM
- IC50 (GBM [39]): 0.11 µM
- CI (GBM [40]): 0.526
- CI (GBM [41]): 0.248
- IC50 (U-87 MG [42]): 0.194 µM
- EC50 (KNS-42 [43]): 0.108 µM
- EC50 (GBM [44]): 0.09 µM
- CI (KNS-42 [45]): 0.116
